Experiment [1] addresses T1, PML NBs (Homo sapiens, UniProt P29590).
T1 construct: endogenous in cells
T1 sequence (P29590 1-882): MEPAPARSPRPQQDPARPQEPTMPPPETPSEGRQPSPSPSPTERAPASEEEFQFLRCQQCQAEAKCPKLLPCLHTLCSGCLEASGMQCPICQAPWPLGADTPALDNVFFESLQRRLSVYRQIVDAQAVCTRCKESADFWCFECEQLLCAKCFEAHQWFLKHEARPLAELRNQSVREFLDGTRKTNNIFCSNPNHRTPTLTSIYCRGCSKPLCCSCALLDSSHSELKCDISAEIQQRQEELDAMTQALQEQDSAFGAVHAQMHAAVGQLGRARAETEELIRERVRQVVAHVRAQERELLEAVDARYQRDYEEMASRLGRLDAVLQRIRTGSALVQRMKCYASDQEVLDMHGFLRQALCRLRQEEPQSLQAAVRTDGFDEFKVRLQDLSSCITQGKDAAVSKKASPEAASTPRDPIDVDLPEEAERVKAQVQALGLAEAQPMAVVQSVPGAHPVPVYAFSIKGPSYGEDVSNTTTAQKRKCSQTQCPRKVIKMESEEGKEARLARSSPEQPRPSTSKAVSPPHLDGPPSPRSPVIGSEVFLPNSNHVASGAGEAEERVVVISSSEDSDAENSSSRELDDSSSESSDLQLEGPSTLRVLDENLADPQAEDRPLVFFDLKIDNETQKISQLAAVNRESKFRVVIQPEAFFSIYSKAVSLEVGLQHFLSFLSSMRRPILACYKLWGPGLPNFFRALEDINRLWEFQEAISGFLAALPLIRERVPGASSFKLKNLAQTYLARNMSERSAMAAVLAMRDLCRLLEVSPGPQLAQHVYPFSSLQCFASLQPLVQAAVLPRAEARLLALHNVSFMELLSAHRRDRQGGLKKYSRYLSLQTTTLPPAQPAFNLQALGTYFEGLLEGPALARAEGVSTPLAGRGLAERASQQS
The experiment in a line: PML NB labelling in in situ nuclear matrix preparations (immunofluorescence). In kind it is cell-based. To be noted: nuclear matrix prepared in situ, exposure to DTT. The protocol: (§1) Immunofluorescence, electronic microscopy and antibodies were previously described^15. In situ nuclear matrix preparations were prepared as described^1. Confocal analyses were performed on a LSM510 Meta laser microscope (Carl Zeiss MicroImaging, Inc.) with a plan apochromat 63X N.A.1.4 oil immersion objective and increased resolution images were obtained with deconvolution software (Autodeblur, Image Quant) using blind iterative algorithms.
(§2) Intermolecular disulfide bonds were previously implicated in stabilization of the nuclear matrix. […] We then compared total and nuclear matrix extracts from transiently transfected CHO cells under non-reducing conditions and observed that the matrix fraction was dramatically enriched in covalent PML dimers.
The matrix-associated PML fraction is hypersumoylated. Conversely, deletion of the coiled-coil of PML abrogates its association to the nuclear matrix, NB formation, and sumoylation. Thus, whereas As2O3 induces PML targeting to the matrix and NB formation independently of sumoylation, matrix association contributes to basal or As2O3-enhanced PML sumoylation. We therefore questioned how As2O3 could promote transfer from soluble diffuse nuclear PML to insoluble, matrix-associated NBs. As2O3 controls protein phosphorylation and ROS production. […]

In experiment [2] the test system is lamin B. Put plainly: lamin B staining in in situ nuclear matrix preparations. In kind it is cell-based. To be noted: nuclear matrix prepared in situ, exposure to DTT. The protocol:
as §1
The mouse anti-GFP antibody was from Roche Applied Science; Goat polyclonal anti-Lamin B (M20), rabbit polyclonal anti-RXRa (D20) and anti-Daxx (M-112) were from Santa Cruz Biotechnology. Rabbit polyclonal anti-Daxx from G. Grosveld was used for Western blot analysis. Anti SUMO-1 (mouse monoclonal anti GMP-1 antibody) and Rabbit polyclonal anti-SUMO-2/3 antibodies were from Zymed Laboratories. Rabbit polyclonal anti-RARA115 was a kind gift of Pierre Chambon. […] Fluorescence was quantified with ImageJ software.
as §2
The matrix-associated PML fraction is hypersumoylated. […]

“Also recorded” adds a separate entry of the source.

As to `O[C@@H](CS)[C@@H](O)CS` [DTT], the “PML NB labelling in in situ nuclear matrix” value in experiment [1] is reported as “PML NB labelling was lost; also recorded: disrupted endogenous PML NBs”. Further, in experiment [2], the “lamin B staining” value is “unaffected; also recorded: without affecting lamin-B staining”.
